Test results as given in a melting point compilation (Tetko et al.; mined from patent text by program, amines drawn as free bases though some values may be those of a salt).

First: COC(=O)C(C)(C)OCc1cc2cc(Cl)ccc2n1S(=O)(=O)c1ccc2sc(C)nc2c1
Second: Cc1cc(-c2cc(C(=O)O)c(=O)n(Cc3ccccc3Cl)n2)ccc1F
The melting point of the first is lower: 132 to 134 °C for the first, 185 to 186 °C for the second.

Compared with `COc1ccccc1C(O)c1cccc2c1ccn2C` (configuration not stated), `COc1ccccc1CNc1cc(C(=O)Nc2ccccc2)ccc1OC` is higher in melting point: 95 °C for the first, 177 to 179 °C for the second.

First: CCc1ccc2c3c(c(=O)oc2c1)CNCC3
Second: Oc1ccc2c(c1)CCc1c-2oc2cc(O)ccc12
The melting point of the first is lower: 80 to 85 °C for the first, 219 to 220 °C for the second.

First: CCOC(=O)c1cnn2c(C3CC3)cc(-c3ccc(C(F)(F)F)cc3)cc12
Second: CC(=O)N1CCCc2c(c3ccc(-n4ccc(-c5ccc(C(F)(F)F)nc5)cc4=O)cc3n2C)C1
The melting point of the first is lower: 117 °C for the first, 156 to 162 °C for the second.

First: N#CCC(C#N)=CNc1c(Cl)cc(C(F)(F)F)cc1Cl
Second: Cn1cc(CS(C)=O)c(=O)c2ccc(C(F)(F)F)cc21 (configuration not stated)
The melting point of the first is lower: 122 °C for the first, 208 to 210 °C for the second.

First: CC(C)c1cccc(C(C)C)c1NC(=O)C(Cc1ccc(OCc2ccccc2)cc1)NC(=O)CC(C)(C)C (configuration not stated)
Second: CSCC(=O)[C@H](COCc1ccccc1)NC(=O)[C@H](CC(C)C)NC(=O)OCc1ccccc1
The melting point of the first is higher: 209 to 212 °C for the first, 58 to 70 °C for the second.

Compared with `CC(=O)NC(C#N)NC(=O)c1cc(Cl)cc(Cl)c1` (configuration not stated), `CC(C)C(C(=O)O)c1cc(Cl)c(O)c(Cl)c1` (configuration not stated) is lower in melting point: 227 to 228 °C for the first, 152 to 154 °C for the second.

First: Cc1nn(-c2cc(OC(C)C)c(Cl)cc2F)c(=O)[nH]1
Second: CON=Cc1cc(-n2c(=S)cc(C(F)(F)F)n(N)c2=O)c(F)cc1Cl
The melting point of the first is lower: 120 to 124 °C for the first, 172 to 174 °C for the second.

First: Oc1ccc(-c2nc3ccc(O)cc3c(-c3ccc(F)cc3)c2Cl)cc1
Second: Fc1ccc(-c2nc(-c3ccccc3)sc2-c2ccncc2)cc1
The melting point of the first is higher: 295 to 296 °C for the first, 135 to 137 °C for the second.

First: O=c1nc(-c2cccc(Cl)c2)c2cc(Br)ccc2[nH]1
Second: Cc1cccc(-c2cn(C)cc(-c3cccc(Br)c3)c2=O)c1
The melting point of the first is higher: 281 °C for the first, 144 to 147 °C for the second.

Compared with `Cc1c(Cl)ccc(OC(C)C(=O)O)c1Cl` (configuration not stated), `CS(=O)(=O)c1c(Cl)ccc(C(=O)O)c1Cl` is higher in melting point: 150 °C for the first, 158 °C for the second.

First: CCOc1ccc(-c2nc(-c3ccc(OC(C)=O)c(C(=O)O)c3)cs2)cc1OCC
Second: CC(=O)Oc1ccc(-c2ccccc2)cc1C1(OC(C)=O)C(=O)c2ccccc2C1=O
The melting point of the first is lower: 178 to 179 °C for the first, 196 to 198 °C for the second.

First: C=CS(=O)(=O)NCCCc1ccc(-c2ccc(=O)[nH]n2)cc1
Second: Oc1ccc(CCCCCCc2ccc(O)cc2)cc1
The melting point of the first is higher: 166 to 168 °C for the first, 143 to 144 °C for the second.

First: COC(=O)C(=O)c1c[nH]c2ccccc12
Second: CC=CC(=O)c1c(CCC)[nH]c2cc(C(=O)OC)ccc12
The melting point of the first is higher: 226 to 228 °C for the first, 153 to 154 °C for the second.

First: CC(C)(CO)c1cn2nc(NCCCN3CCC(OC(c4ccccc4)c4ccccc4)CC3)ccc2n1
Second: N#CCN1CCC(Nc2nc3ccccc3n2Cc2ccc(CO)o2)CC1
The melting point of the first is lower: 105 to 108 °C for the first, 210 °C for the second.

First: Cc1nc(Cc2ccc(NC(=O)/C=C/c3cnn(C)c3-c3ccc(F)cc3)cc2)no1
Second: CCCCc1nc2ccc(C(C)O)cc2c(=O)n1Cc1ccc(-c2ccccc2-c2nnn[nH]2)cc1 (configuration not stated)
The melting point of the first is higher: 183 to 184 °C for the first, 146 to 147 °C for the second.

First: CCC(=O)NCC[C@@H]1CCc2cc(Br)c3c(c21)CCO3
Second: CCNC(=O)c1c(Br)csc1[Si](C)(C)C
The melting point of the first is higher: 129 to 131 °C for the first, 93 to 96 °C for the second.

Compared with `Cc1ccc(C(=O)CCCC(C)C(=O)O)cc1` (configuration not stated), `Cc1ccc(S(=O)(=O)N2CC[C@@H](O)C2)cc1` is higher in melting point: 50 to 50.5 °C for the first, 108 to 112 °C for the second.

First: COC(=O)c1cc(N)c(NS(C)(=O)=O)c(CO)c1
Second: CCOC(=O)c1ccc2nccc(O)c2c1
The melting point of the first is lower: 150 to 155 °C for the first, 233 to 234 °C for the second.

First: COCc1ncnc(O)c1C
Second: CCOC(=O)C(C)Oc1ncn(-c2cccc(C(F)(F)F)c2)n1 (configuration not stated)
The melting point of the first is higher: 139 to 140 °C for the first, 100 to 102 °C for the second.

Compared with `O=C(NC1CC=CC1)OCc1ccccc1`, `Nc1ccccc1C(=O)NCCc1cccnc1` is higher in melting point: 56 to 57 °C for the first, 126 to 128 °C for the second.

First: CC1(C)CCC(C)(C)c2cc(-c3cc([N+](=O)[O-])ccc3OS(=O)(=O)C(F)(F)F)ccc21
Second: CC1=C(C(=O)OC(C)C)C(c2cccc([N+](=O)[O-])c2)N(CCCc2ccccc2)C(=O)N1 (configuration not stated)
The melting point of the first is lower: 87 to 89 °C for the first, 150 to 152 °C for the second.

First: CC(=O)OC1CSC(Oc2cncc(-c3ncccc3C)c2)C(OC(C)=O)C1OC(C)=O (configuration not stated)
Second: C=C(C)C(=O)OCCCCCCOc1ccc(C(=O)Oc2ccc(/C=C/C(=O)OC)cc2OC)cc1
The melting point of the first is higher: 148 to 150 °C for the first, 92 to 94 °C for the second.

Compared with `Cc1ccc(CCOc2ccc(CC3SC(=O)NC3=O)cc2)nc1` (configuration not stated), `COc1ccc(CCc2ccc3ccc(C(=O)NCC(O)c4ccccc4)c(O)c3n2)cc1` (configuration not stated) is lower in melting point: 192 to 193 °C for the first, 69 to 72 °C for the second.

First: O=[N+]([O-])c1nccn1C(Br)CBr (configuration not stated)
Second: NC(=O)c1cc([N+](=O)[O-])cc([N+](=O)[O-])c1Cl
The melting point of the first is lower: 102 to 106 °C for the first, 181 to 183 °C for the second.

Compared with `CC(=O)NC[C@H]1CN(c2ccc(N3CCC(n4ncnn4)CC3)c(F)c2)C(=O)O1`, `O=C(Nc1ccc(F)cc1)[C@H]1CCCN(C(=O)c2ccc(F)cc2)C1` is lower in melting point: 186 to 188 °C for the first, 163 to 164 °C for the second.

First: O=C(O)c1ccc(Cl)nc1C(F)(F)F
Second: NC(=O)c1ccc(C(F)(F)F)c(Br)c1
The melting point of the first is higher: 154 to 156 °C for the first, 148 to 150 °C for the second.

First: CC(C)c1ccc(N(Cc2ccc(N(C)C)cc2)C(=O)C2CCOc3ccccc32)cc1 (configuration not stated)
Second: CN(C(=O)c1coc(C=Cc2ccc(C(F)(F)F)cc2)n1)c1ccc(CCCCn2ccnn2)cc1
The melting point of the first is lower: 110 to 112 °C for the first, 127 to 129 °C for the second.

First: CCCC(C)S(=O)(=O)Nc1ccc(C(=O)CN2CCN(c3ccncc3)CC2)cc1 (configuration not stated)
Second: O=C(Nc1nccs1)C(CC1CCCC1)c1ccc(-c2ccncc2)cc1 (configuration not stated)
The melting point of the first is lower: 101 to 103 °C for the first, 165 to 167 °C for the second.

First: Nc1nc2ccccc2c2c1ncn2CCOCCCc1nccs1
Second: CCOCCn1c(N2CCCN(CCC3(c4ccncc4)CCN(C(=O)c4cc(OC)c(OC)c(OC)c4)C3)CC2)nc2ccccc21 (configuration not stated)
The melting point of the first is higher: 134 to 135 °C for the first, 85 to 95 °C for the second.

First: CCOC(=O)C1=C(c2ccc(-n3c(C)nc4cnccc43)cc2)NC(C)=C(C(=O)Nc2ccccn2)C1c1ccccc1Cl (configuration not stated)
Second: Cc1cn(-c2cccc(C3=Nc4ccc(C#Cc5ccc(F)cc5)cc4NC(=O)C3)c2)cn1
The melting point of the first is higher: 226 to 228 °C for the first, 210 °C for the second.

Compared with `O=C1CN2CCCC1C2` (configuration not stated), `CC(C)(C)OC(=O)NC1COCCCC=CC2CC2(C(=O)NS(=O)(=O)C2CC2)NC(=O)C2CC(OC(=O)N3CCc4ccccc43)CN2C1=O` (configuration not stated) is higher in melting point: 83 to 87 °C for the first, 128 to 130 °C for the second.

First: CC(C)(C)C(=O)NC(=O)N1CC1C#N (configuration not stated)
Second: C=CCc1cc(C2=NNC(=O)CC2)ccc1OCC(O)CNC(C)C (configuration not stated)
The melting point of the first is higher: 136 to 138 °C for the first, 94 to 96.5 °C for the second.

First: Cc1c(CO)sc2cc(Br)ccc12
Second: O=S(=O)(NCCSc1cc(F)c(OCCO)c(F)c1)c1ccc(Cl)cc1
The melting point of the first is higher: 95 to 96 °C for the first, 43.5 to 45 °C for the second.

First: N#Cc1ccc(-c2cc(-c3cc(C#N)ccc3Cl)on2)cc1
Second: O=C(O)COc1cccc2c1CCc1sc(SC(c3cccc(F)c3)c3cccc(F)c3)nc1-2
The melting point of the first is higher: 207 to 209 °C for the first, 155 to 158 °C for the second.

Compared with `NC(=O)N1C(=O)C(=C(OCC(=O)C2COCOC2)c2cccs2)c2cc(F)c(Cl)cc21`, `Nc1ncc(-c2ccncc2)cn1` is lower in melting point: 199 to 200 °C for the first, 180 to 182 °C for the second.
